Tested on: snout beetles
Assay: Field test of individual odorants in yellow Delta traps
Format: in vivo, Eremnus setulosus and/or Phlyctinus calosus
Settings: for Numbers of snout beetles caught in yellow Delta traps, Mean: mean of six replications, traps collected after one week; for Numbers of snout beetles caught in yellow Delta traps, Rep. 1: replication 1; for Numbers of snout beetles caught in yellow Delta traps, Rep. 1 / Numbers of snout beetles caught in yellow Delta traps, Rep. 2 / Numbers of snout beetles caught in yellow Delta traps, Rep. 3 / Numbers of snout beetles caught in yellow Delta traps, Rep. 4 / Numbers of snout beetles caught in yellow Delta traps, Rep. 5 / Numbers of snout beetles caught in yellow Delta traps, Rep. 6: traps at ground level against apple tree trunks, collected after one week; for Numbers of snout beetles caught in yellow Delta traps, Rep. 2: replication 2; for Numbers of snout beetles caught in yellow Delta traps, Rep. 3: replication 3; for Numbers of snout beetles caught in yellow Delta traps, Rep. 4: replication 4; for Numbers of snout beetles caught in yellow Delta traps, Rep. 5: replication 5; for Numbers of snout beetles caught in yellow Delta traps, Rep. 6: replication 6
Source text: Yellow Delta traps fitted with bottom sticky pads upon which odorant dispensers of the various test odorants were applied, were placed on ground level against the trunks of bearing apple trees in the Koue Bokkeveld area in the Western Cape Province, South Africa. Test orchards infested with snout beetles were selected on the farms Dennekruin and Voorsorg in the Ceres-Koue-Bokkeveld area.
Unloaded or “blank” traps with no odorants, but identical to the other traps in all other respects, were used as a control. There are no attractants registered for use on snout beetles on deciduous fruit in South Africa with which to compare the experimental results.
After one week the traps were collected and the snout beetles caught were counted and noted. Six replications were used per odorant tested. In Table 1 below the summarised results of the experiments are presented.

Row | SMILES | Numbers of snout beetles caught in yellow Delta traps, Mean | Numbers of snout beetles caught in yellow Delta traps, Rep. 1 | Numbers of snout beetles caught in yellow Delta traps, Rep. 2 | Numbers of snout beetles caught in yellow Delta traps, Rep. 3 | Numbers of snout beetles caught in yellow Delta traps, Rep. 4 | Numbers of snout beetles caught in yellow Delta traps, Rep. 5 | Numbers of snout beetles caught in yellow Delta traps, Rep. 6
1 | COC1=C(C)OC(C)C1=O (centres unmarked) [2,5-Dimethyl-4-methoxy-3(2H)-furanone] | 3.5 | 2 | 4 | 3 | 2 | 3 | 7
2 | COc1ccccc1 [Anisole] | 2.7 | 4 | 1 | 3 | 3 | 2 | 3
3 | CC(=O)CCC(C)C [5-Methyl-2-hexanone] | 2.7 | 4 | 1 | 1 | 5 | 3 | 2
4 | COc1cccc(C(C)=O)c1 [3-Methoxy acetophenone] | 2.5 | 3 | 1 | 6 | 2 | 1 | 2
5 | O=C(O)C1CC1 [Cyclopropane carboxylic acid] | 7.8 | 6 | 7 | 5 | 7 | 3 | 19

Reference: patent publication US9314019B2, “Snout beetle attractant” (priority 2011, dated 2016)
